This is an account of results in US12152038B2, “Vasopressin receptor antagonists and products and methods related thereto” (Neumora Therapeutics, Inc., priority 2017, dated 2024).

Data set [1] is described as follows: Wild-type MDCK permeability and efflux assay (Papp, efflux ratio). It counts as in vitro ADME. Particulars: dog, pH 7.4, wild-type MDCK cells; for efflux ratio at 1 h, 10 μM: Papp B>A/Papp A>B, read-out: ER WT (Efflux Ratio). The protocol: The MDR1-MDCK effective efflux assay was performed as described in the BioFocus Standard Operating Procedure, ADME-SOP-56. Both wild-type (WT) and MDR1-MDCK cells (Solvo Biotechnology) were seeded onto 24-well Transwell plates at 2.35×10^5 cells per well and used in confluent monolayers after a 3 day culture at 37° C. under 5% CO2. For both cell types, test and control compounds (propranolol, vinblastine) were added (10 μM, 0.1% DMSO final, n=2) to donor compartments of the Transwell plate assembly in assay buffer (Hanks balanced salt solution supplemented with 25 mM HEPES, adjusted to pH 7.4) for both apical to basolateral (A>B) and basolateral to apical (B>A) measurements. Incubations were performed at 37° C., with samples removed from both donor and acceptor chambers at T=0 and 1 hour and compound analysed by mass spectrometry (LC-MS/MS) including an analytical internal standard.
Apparent permeability (Papp) values were determined from the relationship: Papp=[CompoundAcceptor T=end]×V Acceptor/([Compound Donor T=0]×V Donor)/incubation time×V Donor/Area×60×10^−6 cm/s
In this equation, V is the volume of each Transwell compartment (apical 125 μL, basolateral 600 μL), and concentrations are the relative MS responses for compound (normalized to internal standard) in the donor chamber before incubation and acceptor chamber at the end of the incubation, and Area is the area of cells exposed for drug transfer (0.33 cm^2).
Efflux ratios (Papp B>A/Papp A>B) were calculated for each compound from the mean Papp values in each direction for both wild-type and MDR1-MDCK cells.
In order to confirm the involvement of MDR1 in any efflux seen, an “effective efflux ratio” (EER) was calculated by comparing compound efflux ratios (ER) in the two cell types by the following equation: EER=ER(MDR1-MDCK)/ER(wild-type MDCK)
This ratio illustrates the effect of the over-expressed MDR1 normalised for the background movement of compound through the wild-type cells.
Lucifer Yellow (LY) was added to the apical buffer in all wells to assess viability of the cell layer. […] Recoveries<50% indicates compound solubility, stability or binding issues, thereby reducing the reliability of a result.
The inherent ability of a potential drug molecule to penetrate the blood brain barrier and avoid efflux by transporters expressed in the brain, can be roughly correlated with the Papp(A-B) and the efflux ratio (as defined above), respectively. A potential drug molecule with an apparent permeability<7 (10^−6 cm/sec) has low permeability (+), >7 (10^−6 cm/sec) but <10 (10^−6 cm/sec) has moderate permeability (++), >10 (10^−6 cm/sec) but <20 (10^−6 cm/sec) has good permeability (+++), and >20 (10^−6 cm/sec) is highly permeable (++++). High permeability in the WT and MDCK II cell permeability assay increases the probability of blood brain barrier penetration and access to the CNS. A potential drug molecule in the above assay system with an efflux ratio or effective efflux ratio of <1 has low probability of being an efflux substrate (++++), >1 but <2 has moderate probability of being an efflux substrate (+++), >2 but <3 has has an increased probability of being an efflux substrate (++), and >3 has a high probability of being an efflux substrate (+). If a potential drug molecule is an efflux substrate, the molecule will have a low probability of reaching exposures in the brain (site of action) that will result in efficacious levels of receptor occupancy.

The target in data set [2] is T1, human Arginine Vasopressin Receptor 1a (AVPR1a) (Homo sapiens, UniProt P37288).
T1 construct: expressed in transfected cells; host or cells: CHO (CHO-AVPR1a, kept under G418 selection)
T1 sequence (P37288 whole entry): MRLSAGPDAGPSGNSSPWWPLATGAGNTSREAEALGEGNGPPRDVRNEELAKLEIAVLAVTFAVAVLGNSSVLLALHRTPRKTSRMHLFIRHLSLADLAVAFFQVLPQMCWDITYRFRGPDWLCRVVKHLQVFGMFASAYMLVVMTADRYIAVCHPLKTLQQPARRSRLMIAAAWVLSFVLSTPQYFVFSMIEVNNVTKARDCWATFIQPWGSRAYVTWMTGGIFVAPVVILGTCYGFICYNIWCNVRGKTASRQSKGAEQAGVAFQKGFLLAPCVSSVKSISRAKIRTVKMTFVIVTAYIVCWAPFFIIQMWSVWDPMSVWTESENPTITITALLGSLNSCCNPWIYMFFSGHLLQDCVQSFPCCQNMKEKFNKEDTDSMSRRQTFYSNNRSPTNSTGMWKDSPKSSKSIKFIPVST
The data set is described as follows: Vasopressin V1a receptor antagonist assay (FLIPR calcium, CHO-AVPR1a cells). It counts as cell-based. In outline:
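CHO cells expressing human AVPR1a were loaded with Calcium-6 dye and preincubated with compound for 15 min at 37° C. Cells were then challenged with AVP at its daily-determined EC80, and FLIPR fluorescence was read. Compounds were tested in duplicate as 10-point 1:3 dilutions from a top final concentration of 3 μM.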

pIC50: −log10 of the molar value.

Take `CC1COc2cc(Cl)ccc2N1C(=O)N1CC2(C1)CN(c1ncccn1)C2` (single isomer, unassigned) [1-83-B, (7-chloro-3-methyl-2,3-dihydro-4H-benzo[b][1,4]oxazin-4-yl)(6-(pyrimidin-2-yl)-2,6-diazaspiro[3.3]heptan-2-yl)methanone]: in data set [1], the Papp A→B (as a rule, how fast a substance crosses the layer from the apical side) at 1 h, 10 μM was above 20 ×10⁻⁶ cm/s and the efflux ratio at 1 h, 10 μM was below 1. The pIC50 – broadly, −log10 of the IC50, conventionally taken in molar units – in data set [2] was above 7.00.
For `CC1COc2cc(F)ccc2N1C(=O)N1CC2(C1)CN(c1noc3ccccc13)C2` (single isomer, unassigned) [4-3-B], in that order: above 20 ×10⁻⁶ cm/s, below 1 and above 7.00.
For `CC1COc2cc(Cl)ccc2N1C(=O)N1CC2(C1)CN(c1cccnn1)C2` (single isomer, unassigned) [9-1-B], in data set [1], the Papp A→B at 1 h, 10 μM is above 20 ×10⁻⁶ cm/s and the efflux ratio at 1 h, 10 μM lay in the range of 1 to 2. The pIC50 in data set [2] is above 7.00.
For `O=C(N1CC2(C1)CN(c1ccc(F)cn1)C2)N1CCC(O)c2cc(Cl)ccc21` (single isomer, unassigned) [13-1-A], in that order: above 20 ×10⁻⁶ cm/s, below 1 and above 7.00.
For `O=C(N1CC2(C1)CN(c1ccccn1)C2)N1CCC(O)c2cc(Cl)ccc21` (single isomer, unassigned) [13-2-B], in data set [1], the Papp A→B at 1 h, 10 μM is above 20 ×10⁻⁶ cm/s and the efflux ratio at 1 h, 10 μM was in the range of 1 to 2. The pIC50 in data set [2] is above 7.00.
For `CC1COc2cc(Cl)ccc2N1C(=O)N1CC2(C1)CN(c1noc3cccnc13)C2` (single isomer, unassigned) [18-3-B], in that order: above 20 ×10⁻⁶ cm/s, below 1 and above 7.00.
As to `CC1COc2cc(F)c(F)cc2N1C(=O)N1CC2(C1)CN(c1ncccn1)C2` (single isomer, unassigned) [19-1-B], in data set [1], the Papp A→B at 1 h, 10 μM was above 20 ×10⁻⁶ cm/s and the efflux ratio at 1 h, 10 μM fell in the range of 1 to 2. In addition, the pIC50 in data set [2] is above 7.00.
Consider `CC1COc2cc(Cl)c(F)cc2N1C(=O)N1CC2(C1)CN(c1ncccn1)C2` (single isomer, unassigned) [19-2-B], for which, in data set [1], the Papp A→B at 1 h, 10 μM was above 20 ×10⁻⁶ cm/s and the efflux ratio at 1 h, 10 μM lay within 1 to 2. In addition, the pIC50 in data set [2] was above 7.00.
Consider `CC1COc2cc(Cl)c(F)cc2N1C(=O)N1CC2(C1)CN(c1cccnn1)C2` (single isomer, unassigned) [19-4-A], for which, in data set [1], the Papp A→B at 1 h, 10 μM was above 20 ×10⁻⁶ cm/s and the efflux ratio at 1 h, 10 μM was 1 to 2. In addition, the pIC50 in data set [2] is above 7.00.
For `Cc1cncc(N2CC3(CN(C(=O)N4c5ccc(F)cc5OCC4C)C3)C2)n1` (single isomer, unassigned) [20-2-A], in that order: above 20 ×10⁻⁶ cm/s, below 1 and 6.00 to 6.30.
For `CC1COc2cc(F)ccc2N1C(=O)N1CC2(C1)CN(c1cc(C#N)ccn1)C2` (single isomer, unassigned) [20-3-B], in data set [1], the Papp A→B at 1 h, 10 μM was above 20 ×10⁻⁶ cm/s and the efflux ratio at 1 h, 10 μM was below 1. The pIC50 in data set [2] is above 7.00.
Consider `Cc1ccnc(N2CC3(CN(C(=O)N4c5ccc(F)cc5OCC4C)C3)C2)c1` (single isomer, unassigned) [20-4-B], for which, in data set [1], the Papp A→B at 1 h, 10 μM is above 20 ×10⁻⁶ cm/s and the efflux ratio at 1 h, 10 μM was below 1. Besides, the pIC50 in data set [2] is above 7.00.
Turning to `COc1ccnc(N2CC3(CN(C(=O)N4c5ccc(Cl)cc5OCC4C)C3)C2)c1` (single isomer, unassigned) [20-8-B], in data set [1], the apical-to-basolateral permeability (Papp A→B) at 1 h, 10 μM was above 20 ×10⁻⁶ cm/s and the efflux ratio at 1 h, 10 μM is below 1. The pIC50 in data set [2] is above 7.00.
For the compound `COc1ccnc(N2CC3(CN(C(=O)N4c5ccc(Cl)cc5OCC4C)C3)C2)n1` (single isomer, unassigned) [20-9-B], in data set [1], the Papp A→B at 1 h, 10 μM was above 20 ×10⁻⁶ cm/s and the efflux ratio at 1 h, 10 μM is below 1. The negative-log IC50 (pIC50) in data set [2] was above 7.00.
For `Cc1nccnc1N1CC2(CN(C(=O)N3c4ccc(Cl)cc4OCC3C)C2)C1` (single isomer, unassigned) [20-10-A], in that order: above 20 ×10⁻⁶ cm/s, below 1 and above 7.00.
